SMILES strings stand for the structures.

The nature of this data set: Human HepG2 cell viability assay in 384 well format. It counts as toxicity, cell-based. The following applies: HepG2 cells, read-out: Inhibition. Also on record: dose 125 nL, time 70.5 hour; cytotoxicity at 70.5 h: concentration not given beside the values.
Turning to `Cc1cc(C)n(-c2ccc3nnc(C)n3n2)n1`, the cytotoxicity at 70.5 h was determined as 18%.

As for `C[C@H](NC(=O)N1CCC(Cc2ccccc2)CC1)C(=O)O`, the cytotoxicity at 70.5 h was -12.5%.

Consider `Cn1c2ccc(F)cc2c2ncn(CCN3CCOCC3)c(=O)c21`, for which the cytotoxicity at 70.5 h came to 17.4%.

As to `COc1cc(-c2nc(N)n[nH]2)cc(OC)c1OC`, the cytotoxicity at 70.5 h is -8.57%.

With `CC(=O)NCCC(Cc1ccccc1)c1ccco1` (stereo not drawn), the cytotoxicity at 70.5 h was -13.4%.

Turning to `C/C(NC(=O)c1cccs1)=C1\C(=O)C[C@@H]2[C@H]1C2(C)C`, the cytotoxicity at 70.5 h was -10%.

In the case of `Cc1nc(Oc2ccccc2Cl)sc1C(=O)O`, the cytotoxicity at 70.5 h was -15.5%.

Regarding `O=C(O)CN1CCC(c2ccccc2)C1` (stereo not drawn), the cytotoxicity at 70.5 h was -13.6%.

With `Cc1ccc(-c2nn(C)c(C(=O)O)c2Br)cc1`, the cytotoxicity at 70.5 h was -20.5%.

For `O=C1Nc2ccccc2/C1=C1\CCCN1`, the cytotoxicity at 70.5 h was -1.25%.

As for `CC(=O)N1CC[C@@]2(O)CCCC[C@H]2[C@@H]1c1ccccc1`, the cytotoxicity at 70.5 h is -0.54%.

On to `COc1ccc2[nH]c3c(N(C)CC4OCCO4)ncnc3c2c1`, for which the cytotoxicity at 70.5 h came to 5.81%.

On to `C/C(NC(=O)c1ccco1)=C1/C(=O)C[C@@H]2[C@H]1C2(C)C`, for which the cytotoxicity at 70.5 h was -6.66%.

In the case of `CC(=O)N1CC[C@@]2(O)CCCC[C@H]2[C@@H]1c1ccc2c(c1)OCO2`, the cytotoxicity at 70.5 h was -1.93%.

For `CCC[C@]12CN3C[C@](CCC)(CN(C1)C3c1[nH]c(=O)[nH]c(=O)c1C)C2=O` (stereo partly drawn), the cytotoxicity at 70.5 h is -10.7%.

Take `Cc1c(C2N3C[C@]4(C(C)C)CN2C[C@](C(C)C)(C3)C4=O)[nH]c(=O)[nH]c1=O` (stereo partly drawn): the cytotoxicity at 70.5 h was -4.97%.

As for `CCC[C@]12CN3C[C@](C)(CN(C1)C3c1[nH]c(=O)[nH]c(=O)c1C)C2=O` (stereo partly drawn), the cytotoxicity at 70.5 h is -9.33%.

As for `COc1ccc2c(ccn2CCC(=O)N[C@H](C(=O)O)C(C)C)c1`, the cytotoxicity at 70.5 h was -8.62%.

As to `O=C(CCC(=O)N1CCc2[nH]c3ccccc3c2C1)NCc1ccco1`, the cytotoxicity at 70.5 h was -8.42%.

For `COc1ccc2c(ccn2CCC(=O)NCCC(=O)O)c1`, the cytotoxicity at 70.5 h was 4.49%.

In the case of `CCOc1c(C(N)=O)cn(C)c1-c1nc2cc(NC(C)=O)ccc2n1C`, the cytotoxicity at 70.5 h is -19.2%.

As for `CSCC[C@H](NC(=O)CCn1ccc2c(Br)cccc21)C(=O)O`, the cytotoxicity at 70.5 h was -16.3%.

As for `CC[C@@H](C)[C@H](NC(=O)CCn1cc(C(C)=O)c2ccccc21)C(=O)O`, the cytotoxicity at 70.5 h is -6.89%.

Take `CC(=O)c1cn(CCC(=O)NCCCC(=O)O)c2ccccc12`: the cytotoxicity at 70.5 h is -12.2%.

Take `Cc1occc(=O)c1OCC(=O)N1CCc2ccccc2C1`: the cytotoxicity at 70.5 h is 7.13%.

In the case of `CC(=O)c1cc2c(=O)[nH]c(=O)n(C)c2nc1C`, the cytotoxicity at 70.5 h was -9.65%.

Turning to `COc1cc2nc(C)n(CC(=O)NCCCO)c(=O)c2cc1OC`, the cytotoxicity at 70.5 h was -10.5%.

`COc1cc2nc(C)n(CC(=O)NCCC(C)C)c(=O)c2cc1OC`: the cytotoxicity at 70.5 h is -16.6%.

Turning to `O=C(NCCc1c[nH]cn1)c1n[nH]c2c1CCC2`, the cytotoxicity at 70.5 h is -8.54%.

`COCCn1ccc2cc(C(=O)NC3CCOC(C)(C)C3)ccc21` (stereo not drawn): the cytotoxicity at 70.5 h was -2.78%.

As to `COc1cc(OC)c(C2CC(=O)Oc3cc(C)[nH]c(=O)c32)cc1OC` (stereo not drawn), the cytotoxicity at 70.5 h was -19.4%.

In the case of `COc1ccc(C2CC(=O)Oc3cc(C)[nH]c(=O)c32)c(OC)c1` (stereo not drawn), the cytotoxicity at 70.5 h is -19.2%.

`COC(=O)CC(c1ccc(OC)c(O)c1)c1oc(C)cc(=O)c1O` (stereo not drawn): the cytotoxicity at 70.5 h is -2.8%.

Turning to `COC(=O)CC(c1ccc(O)c(Cl)c1)c1oc(C)cc(=O)c1O` (stereo not drawn), the cytotoxicity at 70.5 h worked out at 1.45%.

For `COC(=O)CC(c1cccnc1)c1oc(C)cc(=O)c1O` (stereo not drawn), the cytotoxicity at 70.5 h is -16.7%.

In the case of `CCc1c(O)nc(SCC(=O)c2ccccc2)n(-c2ccccc2)c1=O`, the cytotoxicity at 70.5 h is -2.09%.

Regarding `O=c1[nH]cc(Nc2ccc(Cl)cc2)c(=O)[nH]1`, the cytotoxicity at 70.5 h came to 29.9%.

As to `CN(CC(=O)N1CCc2[nH]c3ccccc3c2C1)CC1OCCO1`, the cytotoxicity at 70.5 h is 24%.

As for `Cc1cc(NCCN)nc(-c2ccccc2O)n1`, the cytotoxicity at 70.5 h was 35.9%.

Regarding `CSc1c(CC(=O)O)n(C)c2ccccc12`, the cytotoxicity at 70.5 h is -0.594%.

In the case of `Cc1nn(C2CCCC2)c2c1C(c1ccc3c(c1)OCO3)SCC(=O)N2` (stereo not drawn), the cytotoxicity at 70.5 h was -12.2%.

As to `CSCC[C@@H](CO)NC(=O)c1sc(-c2ccccc2Cl)nc1C`, the cytotoxicity at 70.5 h was -16.5%.

On to `COC(=O)CCCNC(=O)N1CCc2c([nH]c3ccc(Cl)cc23)C1`, for which the cytotoxicity at 70.5 h is -6.07%.

Turning to `COc1ccc(CC(=O)NCCCc2nnc3nc(C)cc(C)n23)cc1`, the cytotoxicity at 70.5 h was -10.1%.

As for `O=C(CC1NC(N2CCc3ccccc3C2)=NC1=O)Nc1ccccc1` (stereo not drawn), the cytotoxicity at 70.5 h is -5.52%.

For the compound `CNc1oc(-c2ccc(OC)c(S(=O)(=O)N(C)C)c2)nc1C#N`, the cytotoxicity at 70.5 h was -9.03%.

For the compound `CCCn1nnc2c(sc3nc(N4CCOCC4)c4c(c32)CCC4)c1=O`, the cytotoxicity at 70.5 h was -21.7%.

As for `O=C(O)CCCNC(=O)N1CCc2c([nH]c3ccc(Cl)cc23)C1`, the cytotoxicity at 70.5 h was -7.18%.

Take `Cc1nc(-c2noc3ccc(C(=O)NCCN4CCOCC4)cc23)co1`: the cytotoxicity at 70.5 h came out at 12.2%.

Turning to `CN(C)S(=O)(=O)N1C[C@H]2CCC[C@@]2(COCC2CC2)C1`, the cytotoxicity at 70.5 h is 16.4%.

As for `COCC(=O)N1CC[C@@H]2O[C@@H](COCC3CCOCC3)CC[C@@H]21`, the cytotoxicity at 70.5 h is 12.6%.

Turning to `Fc1cnc(N2CC[C@@H](N3CCOCC3)[C@@H]2Cc2ccccc2)nc1`, the cytotoxicity at 70.5 h is 8.96%.

As for `CN(C)c1cccc(C(=O)N2CCc3ccc(=O)[nH]c3CC2)c1`, the cytotoxicity at 70.5 h is -6.59%.

For `Cn1c2c(c(=O)n1C)CN(S(=O)(=O)c1cccs1)CCC2`, the cytotoxicity at 70.5 h was -5.01%.

For `CN(C)C(=O)N1CCc2ccc(=O)[nH]c2CC1`, the cytotoxicity at 70.5 h was -3.89%.

`Cn1cc(C(=O)N2CC[C@@H]3[C@@H]2CCN3c2ccccn2)cn1`: the cytotoxicity at 70.5 h was -5.62%.

Regarding `O=C(c1ccco1)N1CC[C@@H]2O[C@H](COCC3CCOCC3)CC[C@@H]21`, the cytotoxicity at 70.5 h is 4.34%.

Take `Cc1ccc(OCCN2CCC(c3ccnn3CCO)CC2)cc1`: the cytotoxicity at 70.5 h worked out at 3.29%.

As for `OCCn1nccc1C1CCN(CCOc2ccccc2Cl)CC1`, the cytotoxicity at 70.5 h was -0.941%.

In the case of `OCCn1nccc1C1CCN(CCOc2ccccc2F)CC1`, the cytotoxicity at 70.5 h was -2.7%.

As for `COc1ccc(OCCN2CCC(c3ccnn3CCO)CC2)cc1`, the cytotoxicity at 70.5 h was -5.41%.

For the compound `CC(C)c1nn(C)c(N2CCOCC2)c1CNC(C)c1ccccn1` (stereo not drawn), the cytotoxicity at 70.5 h is -2.55%.

`Cc1cc(C)n(CC2CN(CCOc3ccccc3C#N)CCO2)n1` (stereo not drawn): the cytotoxicity at 70.5 h was -5.02%.

Turning to `N#Cc1cccc(OCCN2CCOC(Cn3cccn3)C2)c1` (stereo not drawn), the cytotoxicity at 70.5 h is -3.46%.

For `Cc1nc(C(=O)N2CCCCC2)nn1-c1ccccc1Cl`, the cytotoxicity at 70.5 h was -7.71%.

On to `Cc1cnn(C2CCCN(C(=O)c3ccc(N4CCCC4)nn3)C2)c1` (stereo not drawn), for which the cytotoxicity at 70.5 h was found to be 1.64%.

With `O=C(CN1CCc2cncnc2C1)NCCOc1cccc(Cl)c1`, the cytotoxicity at 70.5 h is -4.17%.

As for `Cc1nn(CC(C)C)c(N(C)C)c1CNCc1ccc2c(c1)OCO2`, the cytotoxicity at 70.5 h is -2.13%.

Turning to `c1ccc(-n2nnnc2CNCC2CCCN2c2cccnn2)cc1` (stereo not drawn), the cytotoxicity at 70.5 h is -0.967%.

Take `CC(C)c1n[nH]c(C2CN(C(=O)c3cc(Cl)c[nH]3)CCO2)n1` (stereo not drawn): the cytotoxicity at 70.5 h was -8.73%.

For the compound `Cc1cc(C(=O)N2CCOC(c3nc(C(C)C)n[nH]3)C2)no1` (stereo not drawn), the cytotoxicity at 70.5 h was -11.9%.

Regarding `CC(Cn1cccn1)NCc1nc(-c2ccccn2)no1` (stereo not drawn), the cytotoxicity at 70.5 h is -11.1%.

Take `c1csc(-c2noc(CNCCn3cccn3)n2)c1`: the cytotoxicity at 70.5 h was -4.45%.

`COCc1nc(C(=O)N2CCCC(n3nc(C)cc3C)C2)cs1` (stereo not drawn): the cytotoxicity at 70.5 h is -8.71%.

Regarding `O=C(CCc1ccc(Cl)s1)NCc1nnc2n1CCCCC2`, the cytotoxicity at 70.5 h was -15.9%.

`Cc1cnc2c(S(=O)(=O)NC3CCS(=O)(=O)C3)cccc2c1` (stereo not drawn): the cytotoxicity at 70.5 h was -8.37%.

For the compound `O=C(NCCN1CCOCC1)c1scnc1Cl`, the cytotoxicity at 70.5 h was -15.1%.

Consider `COc1ccnc(N2CCN(C(=O)N3CCOCC3)CC2)n1`, for which the cytotoxicity at 70.5 h is -10.7%.

In the case of `Cc1nc2ccnn2c(C)c1CCC(=O)N1CCSCC1`, the cytotoxicity at 70.5 h is -6.09%.

For `CC1CN(CCOc2ccccc2C#N)CCN1Cc1nccn1C` (stereo not drawn), the cytotoxicity at 70.5 h was -12.6%.

Consider `Cn1ccnc1CN1CCN(CCOc2ccccc2F)CC1`, for which the cytotoxicity at 70.5 h is -11.2%.

Regarding `c1ncc2c(n1)CN(Cc1nc(-c3ccsc3)no1)CC2`, the cytotoxicity at 70.5 h was -14.7%.

For `Cc1nc(C)n(CC2CCCN2Cc2cccc3c2OCCO3)n1` (stereo not drawn), the cytotoxicity at 70.5 h is -5.55%.

In the case of `CC(Cn1cccn1)NCc1nc(-c2ccccc2Cl)no1` (stereo not drawn), the cytotoxicity at 70.5 h is -19.9%.

With `CCC(C)[C@H](N)c1nnc(SCC(=O)Nc2ccc(C)cc2C)o1` (stereo partly drawn), the cytotoxicity at 70.5 h was found to be 0.595%.

Take `CC(C)[C@H](N)c1nnc(SCC(=O)Nc2ccc(Br)cc2)o1`: the cytotoxicity at 70.5 h is -4.97%.

As for `CC(C)C[C@H](N)c1nnc(SCC(N)=O)o1`, the cytotoxicity at 70.5 h came out at 24.4%.

On to `CCN1CCC2(CC1)OCCN2C(=O)c1ccc(OC)c(Cl)c1`, for which the cytotoxicity at 70.5 h was 3.75%.

Take `Cc1[nH]nc2ncc(C(=O)N3CCN(CC(C)O)CC3)cc12` (stereo not drawn): the cytotoxicity at 70.5 h is -5.99%.

With `COc1ccc2c(ccn2CCCN)c1`, the cytotoxicity at 70.5 h was -7.17%.

For the compound `CN(C)CCNCCC(c1ccccc1)C1CCOC(C)(C)C1` (stereo not drawn), the cytotoxicity at 70.5 h is -6.43%.

As to `CN1CCN(c2ccc3ccc(C(=O)N4CCCO4)cn23)CC1`, the cytotoxicity at 70.5 h is -9.32%.

Consider `Cn1cc(C[C@H]2[C@H](N3CCOCC3)CCN2c2ncc(F)cn2)cn1`, for which the cytotoxicity at 70.5 h turned out to be 3.47%.

For `Cc1ccc(CN2C[C@@H]3[C@@H](C(=O)N4CCCC4)CCS(=O)(=O)[C@@H]3C2)cc1`, the cytotoxicity at 70.5 h was -1.09%.

Take `CN1CCC2(COCCN(Cc3cccc(C#N)c3)C2)C1` (stereo not drawn): the cytotoxicity at 70.5 h is -0.504%.

Take `COCCN1CCO[C@@H]2CN(Cc3sccc3C)C[C@@H]2C1`: the cytotoxicity at 70.5 h was found to be 1.15%.

As for `Fc1cnc(N2CC[C@@H](N3CCOCC3)[C@@H]2Cc2ccncc2)nc1`, the cytotoxicity at 70.5 h amounted to 15.9%.

On to `Cc1csc(NCC(=O)c2c[nH]c3ccccc23)n1`, for which the cytotoxicity at 70.5 h was 3.37%.

The record behind these values is ChEMBL document CHEMBL3507680, “University of Dundee, Gates Library screen for HepG2 cell viability”.
